The values below are quoted from earlier work in patent US20140227371A1, “EDIBLE COMPOSITION” (priority 2011, published 2014).

Data set [1] has as its system rat liver. As to conditions: through activation of the β-oxidation system, Tsuduki et al. 2009.
The conditions of data set [2]: alcohol-induced steatosis and steatohepatitis models; Kang et al. 2005.

`OC[C@H]1NC[C@H](O)[C@@H](O)[C@@H]1O` [1-Deoxynojirimycin]: the Lipid accumulation entry in data set [1] is given as “suppress lipid accumulation”.
`[Zn]` [Zinc]: the Hepatoprotective effects result in data set [2] was “hepatoprotective effects”.
